# Test results taken from US20200291100A1, “TREATMENT OF AGE-RELATED AND MITOCHONDRIAL DISEASES BY INHIBITION OF HIF-1 ALPHA FUNCTION” (President and Fellows of Harvard College, priority 2012, published 2020).
# How the values were obtained:
# Assay type in all cases: cell-based, mouse
# [1] = tested on: primary PGC-1α/β KO myotubes; test: NMN with or without HIF stabilizing compounds in PGC-1α/β KO myotubes, qPCR of mitochondrially-encoded ETC genes; settings: HIF stabilizing compound added to NMN-treated cells; 1 mM DMOG or 10 μM DFO, 12 hours
# Experimental: As a functional test of whether NMN reverses genome asynchrony by depleting cells of HIF-1α, primary PGC-1α/β KO myotubes were incubated with NMN in the presence and absence of the HIF stabilizing compounds DMOG and DFO. […] Primary myoblasts cells were isolated from WT, SIRT1 KO (Price et al., 2012) and PGC-1α/β KO (Zechner et al., 2010) mice as previously described (Price et al., 2012). WT and PGC-1α/β KO primary myoblasts were plated and allowed to differentiate into myotubes by replacing the media with low glucose DMEM supplemented with 2% horse serum (Sigma-Aldrich) for 4 days. After the differentiation the cells were infected with empty vector or flag-SIRT1 adenovirus as described before ([…] al., 2007). Media was replaced with fresh DMEM supplemented with 2% horse serum (Sigma-Aldrich) for an additional 48 hr and, after that the cells were harvested for the different assays as described. […] Quantitative RT-PCR reactions were performed using 1 μM of primers and LightCycler® 480 SYBR Green Master (Roche) on an LightCycler® 480 detection system (Roche). Calculations were performed by a comparative method (2-ΔCT) using 18S as an internal control. For mtDNA analysis, total DNA was extracted with DNeasy blood and tissue kit (Qiagen). mtDNA was amplified using primers specific for the mitochondrial cytochrome c oxidase subunit 2 (COX2) gene and normalized to genomic DNA by amplification of the ribosomal protein s18 (rps18) nuclear gene. Primers were designed using the IDT software (IDT) and the primer sequences can be found in Table 1.
# [2] = tested on: PGC-1α/β knockout myotubes; test: HIF stabilizing compounds in PGC-1α/β knockout myotubes with or without SIRT1 overexpression; settings: SIRT1 adenovirus; 1 mM DMOG or 10 μM DFO, 12 hours
# Experimental: Next whether the ability of SIRT1 to regulate mitochondrial function independently of PGC-1α/β is mediated by HIF-1α was tested. […] Furthermore, cells expressing a mutant allele of HIF-1α that is constitutively stabilized due to the replacement of the two hydroxylated prolines with alanines (DPA) (FIG. 7A), caused genome asynchrony similar to hypoxia and treatment with DMOG (FIG. 7B).
# Primary myoblasts cells were isolated from WT, SIRT1 KO (Price et al., 2012) and PGC-1α/β KO (Zechner et al., 2010) mice as previously described (Price et al., 2012). WT and PGC-1α/β KO primary myoblasts were plated and allowed to differentiate into myotubes by replacing the media with low glucose DMEM supplemented with 2% horse serum (Sigma-Aldrich) for 4 days. After the differentiation the cells were infected with empty vector or flag-SIRT1 adenovirus as described before (Gerhart-Hines et al., 2007). Media was replaced with fresh DMEM supplemented with 2% horse serum (Sigma-Aldrich) for an additional 48 hr and, after that the cells were harvested for the different assays as described. To investigate the role of HIF-1α in genome asynchrony, PGC-1α/β KO primary myotubes were treated for 12 hours with 1 mM DMOG (Sigma) or 10 μM DFO (Sigma), 24 h after infection with empty vector of flag-SIRT1 adenovirus or after 12 h treatment with […] NMN (Sigma).
# RNA from skeletal muscle tissue and C2C12 cells were extracted with RNeasy mini kit (Qiagen) according to the instructions and quantified using the NanoDrop 1000 spectrophotometer (Thermo Scientific). cDNA was synthesized with the iSCRIP cDNA synthesis kit (BioRad) using 600 ng of RNA. Quantitative RT-PCR reactions were performed using 1 μM of primers and LightCycler® 480 SYBR Green Master (Roche) on an LightCycler® 480 detection system (Roche). Calculations were performed by a comparative method (2-ΔCT) using 18S as an internal control. For mtDNA analysis, total DNA was extracted with DNeasy blood and tissue kit (Qiagen). mtDNA was amplified using primers specific for the mitochondrial cytochrome c oxidase subunit 2 (COX2) gene and normalized to genomic DNA by amplification of the ribosomal protein s18 (rps18) nuclear gene. […]
# Protein extracts from tissue or C2C12 cells were obtained by lysis in ice-cold lysis buffer (150 mM NaCl, 10 mM Tris HCl (pH 7.4), 1 mM EDTA, 1 mM EGTA, 1% Triton X-100, 0.5% NP-40) supplemented with a cocktail of protease and phosphatase inhibitors (Roche). Protein content was determined by the Bradford protein assay (Biorad), and 50 μg proteins were run on SDS-PAGE under reducing conditions. […] The immunostaining was detected using horseradish peroxidase-conjugated anti-rabbit or anti-mouse immunoglobulin for 1 h at room temperature.
# C2C12 cells = test: SIRT1 inhibition with EX-527 in C2C12 cells; settings: 10 μM EX-527, 12 h
# Experimental: Having shown that HIF-1α stabilization was sufficient to induce genome asynchrony, it was next tested whether it was necessary. […] Knockdown of HIF-1α in C2C12 cells treated with the SIRT1 inhibitor EX-527 prevented genome asynchrony and decline in mitochondrial function, as evidenced by the maintenance of mtDNA content (FIG. 7F), mitochondrial ETC gene expression (FIG. 7G), mitochondrial membrane potential ([…]) and ATP levels (FIG. 7I).
# C2C12 cell line (ATCC) was cultured in low glucose Dulbecco's modified eagle medium (DMEM) (Invitrogen) supplemented with 10% FBS (Invitrogen) and a mix of antibiotic and antimycotic (Invitrogen). To inhibit SIRT1, cells were treated the vehicle (0.001% DMSO) or 10 μM EX-527 (Tocris) for 12 h. C2C12 myoblasts were infected with an empty or SIRT1 adenovirus as described before (Gerhart-Hines et al., 2007) and the media was replaced with fresh DMEM for additional 48 h, after that the cells were treated as described before. To test the effects of hypoxia and HIFα stabilization in genome asyncrony, C2C12 myoblasts were exposed to 1% oxygen for 16 h or treated with the vehicle (0.001% DMSO) or DMOG (Cayman) for the same period of time.
# PGC-1α/β KO myotubes = test: EX-527 in PGC-1α/β KO myotubes reconstituted with WT or T177A/S538A PGC-1α, qPCR; settings: EX-527 48 h
# Experimental: RNA from skeletal muscle tissue and C2C12 cells were extracted with RNeasy mini kit (Qiagen) according to the instructions and quantified using the NanoDrop 1000 spectrophotometer (Thermo Scientific). cDNA was synthesized with the iSCRIP cDNA synthesis kit (BioRad) using 600 ng of RNA. Quantitative RT-PCR reactions were performed using 1 μM of primers and LightCycler® 480 SYBR Green Master (Roche) on an LightCycler® 480 detection system (Roche). Calculations were performed by a comparative method (2-ΔCT) using 18S as an internal control. For mtDNA analysis, total DNA was extracted with DNeasy blood and tissue kit (Qiagen). mtDNA was amplified using primers specific for the mitochondrial cytochrome c oxidase subunit 2 (COX2) gene and normalized to genomic DNA by amplification of the ribosomal protein s18 (rps18) nuclear gene. Primers were designed using the IDT software (IDT) and the primer sequences can be found in Table 1.
# AMPK-DN blocked the decrease in nuclear-encoded genes observed 48 h after treatment with OHT, but not the decline in mitochondrial-encoded genes (FIG. 13G). In order to determine if this AMPK affect is through PGC-1α PGC-1α/β KO myotubes were reconstituted with either a WT PGC-1α or an AMPK insensitive version of PGC-1α (PGC-1α T177A/S538A) (FIG. 20F). […]
# primary myoblasts = test: Lactate treatment of primary WT myoblasts, NAD+/NADH ratio and HIF-1α immunoblot; settings: 10 mM lactate, 24 h
# Source text: FIGS. 21A-21N provide additional data related to the content of FIG. 14. FIG. 21A depicts HIF-1α target genes (PGK-1, Glut1, PDK1 and Vegfa) expression in gastrocnemius of WT and SIRT1 KO mice. Relative expression values were normalized to WT mice (n=5). FIG. 21B depicts hypoxia response element activity in primary myoblasts isolated from WT and SIRT1 KO mice and treated with or without DMOG. Relative luciferase activity was normalized to WT cells (n=6, *p<0.05 versus WT). FIG. 21C depicts a representative immunoblot of HIF-1a and Tubulin in PGC-1α/β KO myotubes treated with adenovirus overexpressing SIRT1 or empty vector as well as treatment with DMSO or with HIF stabilizing compound DMOG. FIG. 21D depicts NAD+/NADH ration measured in primary WT myoblasts treated with either 10 mM pyruvate, 10 mM lactate or vehicle for 24 h (n=4). […] FIG. 21J depicts mitochondrial DNA content analyzed by qPCR in control, HIF-1α DPA or HIF-2α DPA C2C12 cells treated with adenovirus overexpressing SIRT1 or empty vector. […] FIG. 21K depicts ARNT mRNA analyzed by qPCR in C2C12 cells infected with ARNT or nontargeting shRNA. […] FIG. 21L depicts mitochondrial DNA content analyzed by qPCR in C2C12 cells infected with ARNT or nontargeting shRNA. […] FIG. 21M depicts ND1, Cytb, COX1 and ATP6 mRNA analyzed by qPCR in C2C12 cells infected with ARNT or nontargeting shRNA. […] Values are expressed as mean±SEM. […]
smiles,measurement,setting,value
"CC(=O)N(O)CCCCCNC(=O)CCC(=O)N(O)CCCCCNC(=O)CCC(=O)N(O)CCCCCN [DFO, desferrioxamine]",effect on NMN-induced expression of mitochondrially-encoded ETC genes,[1],completely abolished
same,effect on induction of mitochondrial ETC genes by SIRT1 overexpression,[2],completely blocked
NC(=O)C1CCCc2c1[nH]c1ccc(Cl)cc21 (stereo not shown) [EX-527],genome asynchrony,C2C12 cells,induced
same,expression of nuclear- and mitochondrial-encoded genes,PGC-1α/β KO myotubes; in the presence of WT PGC-1α,decreased both nuclear- and mitochondrial-encoded genes
same,expression of nuclear- and mitochondrial-encoded genes,PGC-1α/β KO myotubes; in the presence of the PGC-1α T177A/S538A mutant,only the mitochondrial-encoded genes decreased
CC(O)C(=O)O (stereo not shown) [lactate],HIF-1α protein (immunoblot),primary myoblasts,induces HIF-1α protein stabilization
same,NAD+/NADH ratio,primary myoblasts,decreasing
